Data: patent US10106551B2, “Monothiol mucolytic agents” (PARION SCIENCES, INC., priority 2015, dated 2018)

Legend:
[1] = DTNB assay: rate of S-S bond reduction; format: biochemical; conditions: for DTNB reduction rate: 22.5 μM reducing agent, 45 μM DTNB, 50 mM Tris-HCl
Excerpt: Thiol-containing compounds, such as the monothiol mucolytic agents described in this patent, can react with DTNB (5,5-Dithiobis(2-nitrobenzoic acid)) resulting in the cleavage of its single S—S bond. The DTNB assay serves a dual purpose in our analysis of monothiol compounds, as it can (1) be used to determine the “active concentration” of the mucolytic compounds (what amount of the compound in a reaction is able to cleave S—S bonds) and (2) to assess the rate that the compound can cleave S—S bonds. When cleaved, the resulting compound, NTB (2-nitro-5-thiobenzoate), is a colored product that is measured spectrophotometrically at an absorbance of 412 nm (Abs412). Using the molar extinction coefficient of NTB and measured maximum Abs412, the molar amount of DTNB that reacted with our mucolytic agents can be calculated. Monothiol mucolytic compounds react at a 1:1 stoichiometric ratio with DTNB (i.e. 1 mole of NTB is produced when 1 mole of DTNB is reacted with 1 mole of a monothiol reducing agent). To define the activity concentration of a compound, a final concentration of 22.5 μM mucolytic reducing agent was combined with an excess of DTNB (100 μM) in 1 mL 50 mM Tris-HCl buffer (pH 7.5). Maximum Abs412 was measured and then utilized to calculate the activity concentration. If observed activity concentrations differed from expected activity concentrations by more than 5%, the amount of the compound added to each reaction was accordingly adjusted to kinetically test the reducing rate in the next step. To determine rate of mucolytic reducing activity, 22.5 μM active reducing agent is combined with 45 μM DTNB in 1 mL 50 mM Tris-HCl buffer over a pH range (6.0-7.5). Abs412 is recorded in real time upon addition of the compound and rates were calculated using 2nd order kinetic parameters.

IL-8 = IL-8 Secretion from primary HBEs (ELISA); format: cell-based, human; conditions: FIG. 6B; 10 mM, apical surface of HBE cells, 24 hours
Protocol: Reducing agents were made up in 50 mM Tris-HCl buffered to pH 7.5. Each compound solution (15 μL of 10 mM compound) was added to the apical surface of primary HBEs.
IL-8 secretion was measured from the basolateral HBE media 24 hours post-dose using a ThermoScientific human IL-8 ELISA kit. Samples were diluted 1:50 and then 50 μL of each dilution was added to the ELISA plate. The samples were completed in duplicate following standard reaction conditions as outlined in the kit manual. Absorbance was measured at 450 nm. A standard curve, generated from standards with known amounts of human IL-8, was used to calculate IL-8 amounts in the unknown samples. Supernatant from mucopurlent matters (SMM) purified from cystic fibrosis sputum was used as a positive control for IL-8 secretion.

Muc5B [2] = molecular target: T1, Muc5B (Homo sapiens, UniProt Q9HC84); assay: Mucin agarose gel western blot (saliva / mucus samples); format: biochemical; conditions: for reducing capacity relative to 76 (Muc5B): FIG. 3; for Muc5b reduction: FIG. 4
T1 construct: Various mucin-containing substrates (e.g. saliva, harvested HBE mucus, and disease sputum) treated with our monothiol mucolytic compounds; from tissue; host or cells: saliva; harvested HBE mucus; disease sputum
Protocol: (§1) Various mucin-containing substrates (e.g. saliva, harvested HBE mucus, and disease sputum) treated with our monothiol mucolytic compounds are quenched upon completion of the treatment period with a 10-fold excess of N-ethylmaleimide in order to alkylate any remaining active compound and to prevent further mucin reduction. A 10× concentrated sample loading buffer is diluted into each sample (1×TAE/5% glycerol/0.1% SDS/Bromophenol Blue). Samples ([…]) were analyzed by electrophoresis on 0.9% agarose gels using a buffer system consisting of 1×TAE/0.1% SDS. The agarose gel was soaked for 15 min in 4×SSC (0.6 M NaCl, 60 mM Tri-sodium citrate dehydrate) containing 10 mM DTT before transferring the samples from the gel onto a nitrocellulose membrane by vacuum blotter. Unreduced and reduced Muc5B were visualized on a LiCor Odyssey imaging detection system using a polyclonal antibody directed towards Muc5B.

[3] = Parallel Artificial Membrane Permeability (PAMPA) Assay; format: in vitro ADME; conditions: FIG. 5; 5 hours, room temperature
Protocol: This assay measures the permeability of small molecules across an artificial phospholipid membrane to help predict in vivo drug permeability. First, 500 μM stock solutions were made up in PBS and tested by the DTNB assay (described above) to determine compound activity concentrations. Next, 300 μL of the 500 μM compound stock solution and 200 uL PBS were added per well to the donor and acceptor plates, respectively (BD Gentest™ Pre-Coated PAMPA Plate System). The acceptor plate was then placed on top of the donor plate and allowed to incubate at room temperature for 5 hours. After incubation, the donor and acceptor plates were separated. For each reaction, samples were taken from both the acceptor and donor plates and were combined with DTNB prior to reading spectrophotometrically (maximum Abs412). For prodrug samples, 1 μL of purified esterase (porcine liver esterase; Sigma) was added per well and the samples were incubated at room temperature for 5 minutes to allow for cleavage of the pro-drug cap prior to addition of DTNB. Using the concentrations of compound identified in both the donor and acceptor plates for each sample, a compound permeability parameter was calculated following equations outlined in the BD Gentest™ Pre-Coated PAMPA Plate System Manual.

Muc5B [4] = molecular target: T1, Muc5B; assay: Muc5b reduction in COPD sputum, agarose gel western blot; format: biochemical; conditions: FIG. 8; spontaneously induced sputum from a patient with COPD
Protocol: as §1
An important aspect of mucolytic pro-drugs is that they must be activated in mucus on the lung surface.

[5] = Pro-Drug DTNB assay with or without esterase; format: biochemical
Protocol: The present invention provides a series of mucolytic pro-drugs (see R^6=other than H) that are activated by common enzymes that are present in the extracellular milieu (e.g., nucelotidases, phosphatases, and esterases). As a proof-of-concept, the reducing kinetics of the pro-drug compound 46 in the presence or absence of an activating esterase were tested.
This assay was designed to determine whether prodrug caps added on to our monothiol mucolytic compounds can be cleaved from the molecule. If so, the outcome would be an “active” compound that is able to reduce the S—S bond in DTNB. Similar to the activity concentration version of the DTNB assay described above, monothiol prodrugs were mixed at a final concentration of 22.5 μM with excess DTNB (100 μM final) in 1 mL 50 mM Tris-HCl buffer (pH 7.5) and maximum Abs412 was measured. In the absence of a purified hydrolytic enzyme (e.g. porcine liver esterase; Sigma), the amount of DTNB cleavage observed is an indicator for stability of the cap on the prodrug compound (i.e. if the prodrug remains intact in solution the Abs412=0). Next, 5 uL of esterase (bought as an ammonium sulfate suspension that is subsequently centrifuged to isolate the esterase and then dissolved in reaction buffer prior to assaying) is combined with excess DTNB (100 μM final) and 22.5 μM pro-drug in 1 mL 50 mM Tris-HCl buffer (pH 7.5). Cleavage of the prodrug cap can be visualized in real time via DTNB cleavage at Abs412 by the esterase-liberated monothiol molecule.

[6] = system: mucus on primary human bronchial epithelial (HBE) cultures; assay: Mucus reduction on primary human bronchial epithelial (HBE) cultures, western blot; format: cell-based; conditions: FIG. 9; added to apical surface of HBE cultures
Protocol: as §1
Mucin reduction kinetics were assessed by western blot at the indicated times post-addition of mucolytic agents to the apical surface of HBE cultures.

[7] = Elimination of inhaled 14C-labelled NAC from the lungs in animal studies; format: in vivo; conditions: inhaled or intranasal, 14C-labled NAC, administered by inhalation, animal studies (unpublished observation)

Row | Compound | DTNB reduction rate ([1]; pH 6) | IL-8 secretion (IL-8) | reducing capacity relative to 76 (Muc5B) (Muc5B [2]) | DTNB reduction rate ([1]; pH 6.5) | DTNB reduction rate ([1]; pH 7) | DTNB reduction rate ([1]; pH 7.5) | Muc5b reduction relative to NAC (Muc5B [2]; FIG. 2, 10 mM, 5-fold lower concentration than NAC) | reduction of salivary Muc5b compared to NAC (Muc5B [2]; FIG. 2, equimolar concentrations relative to NAC (50 mM)) | membrane permeability (PAMPA) [3] | Muc5b reduction in sputum (Muc5B [4]) | Reduction Without Esterase ([5]; 22.5 μM prodrug, 100 μM DTNB, pH 7.5, no enzyme) | Reduction With Esterase ([5]; 22.5 μM prodrug, 100 μM DTNB, pH 7.5, porcine liver esterase) | DTNB cleavage without esterase ([5]; FIG. 7 middle panel) | DTNB cleavage after addition of an esterase ([5]; FIG. 7 right-hand panel) | duration of mucus reduction [6] | mucin reduction kinetics [6] | DTNB cleavage ([1]; FIG. 7 left panel) | Muc5b reduction (Muc5B [2]; 3 mM) | Muc5b reduction (Muc5B [2]; 30 mM) | half-life [7]
1 | NCCCC[C@@H](N)C(=O)NCCOc1ccc(CS)cc1 [Compound 69, (R)-2,6-diamino-N-(2-(4-(mercaptomethyl)phenoxy)ethyl)hexanamide] | 485.93 M⁻¹ s⁻¹ | did increase IL-8 secretion | retain the reducing capacity of 76 |  |  |  |  |  |  |  |  |  |  |  |  |  |  |  |  | 
2 | CC(=O)SCc1ccc(OCCN)cc1.Cl [Compound 76, S-4-(2-aminoethoxy)benzyl ethanethioate hydrochloride] | 253.2 M⁻¹ s⁻¹ | did not increase IL-8 secretion |  | 654.24 M⁻¹ s⁻¹ | 1499 M⁻¹ s⁻¹ | 4633.8 M⁻¹ s⁻¹ | greater Muc5b reduction relative to NAC | significantly faster and more complete reduction | membrane permeable |  |  |  |  |  |  |  |  |  |  | 
3 | CC(=O)SCc1ccc(OCCN(C[C@H](O)[C@@H](O)[C@H](O)[C@H](O)CO)C[C@H](O)[C@@H](O)[C@H](O)[C@H](O)CO)cc1 [Compound 85, S-4-(2-(bis((2S,3R,4R,5R)-2,3,4,5,6-pentahydroxyhexyl)amino)ethoxy)benzyl Ethanethioate] |  |  |  |  |  |  |  |  | poor membrane permeability | reduces the Muc5b, but with a delayed kinetic relative to 86 | No | Yes | does not cleave DTNB | metabolically converts 85 to 86, allowing it to hydrolyze DTNB | potentially longer duration of action | slower reduction kinetics |  |  |  | 
4 | OC[C@@H](O)[C@@H](O)[C@H](O)[C@@H](O)CN(CCOc1ccc(CS)cc1)C[C@H](O)[C@@H](O)[C@H](O)[C@H](O)CO [Compound 86, (2R,2′R,3R,3′R,4R,4′R,5S,5′S)-6,6′-((2-(4-(mercaptomethyl)phenoxy)ethyl)azanediyl)bis(hexane-1,2,3,4,5-pentaol)] | 160 M⁻¹ s⁻¹ | no change in IL-8 | retain the reducing capacity of 76 |  |  |  |  |  | poor membrane permeability | rapidly reduced Muc5b |  |  |  |  | substantially recovered 24 hours after dosing | rapid reduction of the mucus | rapidly cleaves DTNB | partial reduction | full Muc5b reduction | 
5 | CC(=O)N[C@@H](CS)C(=O)O [NAC, N-acetyl cysteine, reference compound] | 10 M⁻¹ s⁻¹ |  |  | 26 M⁻¹ s⁻¹ | 69 M⁻¹ s⁻¹ | 230 M⁻¹ s⁻¹ |  |  |  |  |  |  |  |  |  |  |  |  | partial Muc5b reduction | ~20 min
